From a compilation of properties of binary mixtures (doi:10.1016/j.jct.2019.106017)

Assay: xn = mol fraction of the nth substance listed
Conditions: 99.7 kPa

| SMILES | viscosity (303.15 K, x2 = 0.7343) | viscosity (303.15 K, x2 = 0.917) | viscosity (313.15 K, x2 = 0.4086) | viscosity (313.15 K, x2 = 0.7343) | viscosity (313.15 K, x2 = 0.917) | viscosity (323.15 K, x2 = 0.4086) | viscosity (323.15 K, x2 = 0.7343) | viscosity (323.15 K, x2 = 0.917) | viscosity (333.15 K, x2 = 0.4086) | viscosity (333.15 K, x2 = 0.7343) | viscosity (333.15 K, x2 = 0.917) | viscosity (303.15 K, x1 = 1) | viscosity (313.15 K, x1 = 1) | viscosity (333.15 K, x1 = 1) |
| --- | --- | --- | --- | --- | --- | --- | --- | --- | --- | --- | --- | --- | --- | --- |
| CCCCCCCCn1cc[n+](C)c1.F[B-](F)(F)F + CC1COC(=O)O1 | 5.22 mPa·s | 2.84 mPa·s | 26.1 mPa·s | 5.01 mPa·s | 2.61 mPa·s | 18.1 mPa·s | 4.81 mPa·s | 2.36 mPa·s | 12.9 mPa·s | 4.62 mPa·s | 2.16 mPa·s |  |  |  |
| CC1COC(=O)O1 (centres undefined) + CCCCCCCCn1cc[n+](C)c1.F[B-](F)(F)F |  |  |  |  |  |  |  |  |  |  |  | 2.21 mPa·s | 2 mPa·s | 1.6 mPa·s |
